Reference: ChEMBL document CHEMBL2163286, “1,2,3,4-tetrahydroquinoline-based selective human neuronal nitric oxide synthase (nNOS) inhibitors: lead optimization studies resulting in the identification of N-(1-(2-(methylamino)ethyl)-1,2,3,4-tetrahydroquinolin-6-yl)thiophene-2-carboximidamide as a preclinical development candidate” (J Med Chem, 2012)

Experiments:
[1] = target: Nitric oxide synthase 1 (Homo sapiens, UniProt P29475); assay: Inhibition of human nNOS expressed in Sf9 cells assessed as reduction in conversion of [3H]L-arginine to [3H]L-citrulline preincubated for 15 mins by radiometric method
[2] = target: Cytochrome P450 2D6 (Homo sapiens, UniProt P10635); assay: Inhibition of human CYP2D6; format: ADME
[3] = Half life in rat at 10 mg/kg, po; format: ADME, organism-based; set-up: dose 10 mg/kg, route oral; details: in vivo
[4] = Plasma protein binding in human plasma; format: ADME, cell-free; details: read-out: PPB (converted)
[5] = Cmax in rat at 3 mg/kg, iv or 10 mg/kg, po; format: ADME, organism-based; details: in vivo
[6] = target: Cytochrome P450 2C9 (Homo sapiens, UniProt P11712); assay: Inhibition of human CYP2C9; format: ADME
[7] = target: T1, Muscarinic acetylcholine receptor M4 (Homo sapiens, UniProt P08173); assay: Inhibition of human muscarinic M4 receptor by cell based functional assay
T1 sequence (P08173 whole entry): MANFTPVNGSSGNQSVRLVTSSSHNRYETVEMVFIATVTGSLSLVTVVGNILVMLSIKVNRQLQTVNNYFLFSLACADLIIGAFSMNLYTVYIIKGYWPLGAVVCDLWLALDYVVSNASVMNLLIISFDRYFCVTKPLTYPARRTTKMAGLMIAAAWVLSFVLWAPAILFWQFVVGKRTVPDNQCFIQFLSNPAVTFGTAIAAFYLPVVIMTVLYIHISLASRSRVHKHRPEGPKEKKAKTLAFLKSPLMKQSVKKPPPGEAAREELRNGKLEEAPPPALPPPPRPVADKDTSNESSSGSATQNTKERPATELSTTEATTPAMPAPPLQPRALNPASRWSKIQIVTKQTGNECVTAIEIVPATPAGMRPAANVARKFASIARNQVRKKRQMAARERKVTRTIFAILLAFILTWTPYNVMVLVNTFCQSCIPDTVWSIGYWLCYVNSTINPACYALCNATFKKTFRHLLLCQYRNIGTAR

[8] = Tmax in rat at 3 mg/kg, iv or 10 mg/kg, po; format: ADME, organism-based; details: in vivo
[9] = Volume of distribution at steady state in rat at 3 mg/kg, iv or 10 mg/kg, po; format: ADME, organism-based; details: in vivo, read-out: Vdss
[10] = target: T2, Cytochrome P450 1A2 (Homo sapiens, UniProt P05177); assay: Inhibition of human CYP1A2; format: ADME
T2 sequence (P05177 whole entry): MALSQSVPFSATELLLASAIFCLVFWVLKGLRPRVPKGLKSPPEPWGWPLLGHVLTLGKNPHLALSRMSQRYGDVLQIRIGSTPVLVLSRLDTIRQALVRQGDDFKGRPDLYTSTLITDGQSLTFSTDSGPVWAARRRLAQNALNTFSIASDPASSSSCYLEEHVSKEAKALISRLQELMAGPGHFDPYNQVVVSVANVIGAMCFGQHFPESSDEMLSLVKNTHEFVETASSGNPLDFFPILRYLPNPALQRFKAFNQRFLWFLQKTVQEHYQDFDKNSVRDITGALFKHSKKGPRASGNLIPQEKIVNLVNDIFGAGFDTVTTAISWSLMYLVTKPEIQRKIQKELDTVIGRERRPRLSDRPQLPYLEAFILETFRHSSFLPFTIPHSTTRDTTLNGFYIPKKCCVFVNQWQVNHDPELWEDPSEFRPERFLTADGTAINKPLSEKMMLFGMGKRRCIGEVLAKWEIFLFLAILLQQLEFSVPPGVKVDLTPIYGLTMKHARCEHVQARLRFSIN

[11] = target: T3, Muscarinic acetylcholine receptor M2 (Homo sapiens, UniProt P08172); assay: Inhibition of human muscarinic M2 receptor by cell based functional assay
T3 sequence (P08172 whole entry): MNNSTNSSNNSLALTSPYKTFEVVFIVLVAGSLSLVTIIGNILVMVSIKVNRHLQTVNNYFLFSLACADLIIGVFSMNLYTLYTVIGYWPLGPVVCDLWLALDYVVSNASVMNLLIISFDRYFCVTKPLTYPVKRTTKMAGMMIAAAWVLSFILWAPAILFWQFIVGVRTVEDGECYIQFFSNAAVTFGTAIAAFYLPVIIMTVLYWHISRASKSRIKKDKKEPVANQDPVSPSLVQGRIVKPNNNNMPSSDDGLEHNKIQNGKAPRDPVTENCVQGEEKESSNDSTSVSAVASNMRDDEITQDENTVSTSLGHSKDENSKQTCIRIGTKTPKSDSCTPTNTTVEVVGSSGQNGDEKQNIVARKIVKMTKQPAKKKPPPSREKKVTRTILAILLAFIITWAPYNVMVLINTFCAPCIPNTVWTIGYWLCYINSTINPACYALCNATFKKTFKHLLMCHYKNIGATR

[12] = Oral bioavailability life in rat at 10 mg/kg; format: ADME, organism-based; details: in vivo
[13] = target: Muscarinic acetylcholine receptor M3 (Homo sapiens, UniProt P20309); assay: Inhibition of human muscarinic M3 receptor by cell based functional assay
[14] = Plasma clearance in rat at 3 mg/kg, iv or 10 mg/kg, po; format: ADME, organism-based
[15] = target: Cytochrome P450 3A4 (Homo sapiens, UniProt P08684); assay: Inhibition of human CYP3A4; format: ADME
[16] = target: T4, Adrenergic receptor alpha-2 (Rattus norvegicus, UniProt P22086+P19328+P22909); assay: Inhibition of rat Alpha-2 adrenergic receptor by cell based functional assay
T4 sequence (P22086 whole entry): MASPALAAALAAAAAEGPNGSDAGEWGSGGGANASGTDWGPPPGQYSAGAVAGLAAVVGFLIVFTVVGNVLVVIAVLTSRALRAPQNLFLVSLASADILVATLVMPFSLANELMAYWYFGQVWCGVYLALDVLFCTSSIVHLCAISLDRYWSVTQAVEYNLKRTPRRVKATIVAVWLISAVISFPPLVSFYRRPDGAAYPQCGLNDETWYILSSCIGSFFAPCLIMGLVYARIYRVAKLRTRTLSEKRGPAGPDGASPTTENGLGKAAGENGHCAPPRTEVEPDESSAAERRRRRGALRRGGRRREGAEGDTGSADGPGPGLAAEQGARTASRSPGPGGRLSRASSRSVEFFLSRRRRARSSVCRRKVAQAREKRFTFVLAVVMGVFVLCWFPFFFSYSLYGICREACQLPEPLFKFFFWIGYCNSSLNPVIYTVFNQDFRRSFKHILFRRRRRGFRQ
T4 sequence (P19328 whole entry): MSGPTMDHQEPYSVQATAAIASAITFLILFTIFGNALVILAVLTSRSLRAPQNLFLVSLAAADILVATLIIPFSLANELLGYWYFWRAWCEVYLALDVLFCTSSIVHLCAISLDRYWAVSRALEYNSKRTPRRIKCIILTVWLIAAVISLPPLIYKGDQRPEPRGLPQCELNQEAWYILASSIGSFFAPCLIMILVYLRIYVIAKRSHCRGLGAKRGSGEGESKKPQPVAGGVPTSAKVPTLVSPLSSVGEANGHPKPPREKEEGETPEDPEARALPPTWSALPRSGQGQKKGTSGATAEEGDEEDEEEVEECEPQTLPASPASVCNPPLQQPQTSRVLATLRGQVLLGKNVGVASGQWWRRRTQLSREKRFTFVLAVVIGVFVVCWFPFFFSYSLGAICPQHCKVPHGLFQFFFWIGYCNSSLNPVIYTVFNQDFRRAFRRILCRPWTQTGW
T4 sequence (P22909 whole entry): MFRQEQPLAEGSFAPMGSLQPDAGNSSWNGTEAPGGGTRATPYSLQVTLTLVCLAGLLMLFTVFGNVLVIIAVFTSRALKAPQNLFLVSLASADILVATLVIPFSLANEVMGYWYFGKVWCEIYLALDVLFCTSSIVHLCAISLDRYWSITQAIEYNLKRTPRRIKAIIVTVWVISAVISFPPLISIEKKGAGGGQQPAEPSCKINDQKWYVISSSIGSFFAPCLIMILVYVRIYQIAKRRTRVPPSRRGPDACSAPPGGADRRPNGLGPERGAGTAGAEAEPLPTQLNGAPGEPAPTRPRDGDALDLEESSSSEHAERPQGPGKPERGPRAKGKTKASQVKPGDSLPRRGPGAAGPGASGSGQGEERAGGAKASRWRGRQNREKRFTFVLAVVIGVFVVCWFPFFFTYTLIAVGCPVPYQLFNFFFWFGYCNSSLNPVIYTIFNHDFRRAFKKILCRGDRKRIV

[17] = target: Cytochrome P450 2C19 (Homo sapiens, UniProt P33261); assay: Inhibition of human CYP2C19; format: ADME
[18] = target: T5, Muscarinic acetylcholine receptor M1 (Homo sapiens, UniProt P11229); assay: Inhibition of human muscarinic M1 receptor by cell based functional assay
T5 sequence (P11229 whole entry): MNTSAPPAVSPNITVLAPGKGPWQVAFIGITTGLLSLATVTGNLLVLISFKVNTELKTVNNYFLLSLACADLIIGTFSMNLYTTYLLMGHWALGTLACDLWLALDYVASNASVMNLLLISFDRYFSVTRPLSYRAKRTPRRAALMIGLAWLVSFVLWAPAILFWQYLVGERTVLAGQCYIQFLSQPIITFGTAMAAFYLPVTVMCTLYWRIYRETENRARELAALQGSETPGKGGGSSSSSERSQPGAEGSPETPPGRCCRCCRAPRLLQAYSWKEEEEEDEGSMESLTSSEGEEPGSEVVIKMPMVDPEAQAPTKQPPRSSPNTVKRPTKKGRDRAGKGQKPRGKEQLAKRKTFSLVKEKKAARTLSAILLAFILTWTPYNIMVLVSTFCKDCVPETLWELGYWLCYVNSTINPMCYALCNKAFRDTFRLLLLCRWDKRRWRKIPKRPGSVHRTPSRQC

[19] = AUC in rat at 3 mg/kg, iv or 10 mg/kg, po; format: ADME, organism-based; details: plasma
[20] = target: Nitric oxide synthase, inducible (Homo sapiens, UniProt P35228); assay: Inhibition of human recombinant iNOS expressed in Sf9 cells assessed as reduction in conversion of [3H]L-arginine to [3H]L-citrulline preincubated for 15 mins by radiometric method
[21] = target: Voltage-gated inwardly rectifying potassium channel KCNH2 (Homo sapiens, UniProt Q12809); assay: Inhibition of human ERG expressed in HEK293 cells at -80 mV holding potential assessed as reduction in tail current amplitude by conventional patch clamp assay; format: cell-based
[22] = target: T6, Nitric oxide synthase 3 (Homo sapiens, UniProt P29474); assay: Inhibition of human eNOS expressed in Sf9 cells assessed as reduction in conversion of [3H]L-arginine to [3H]L-citrulline preincubated for 15 mins by radiometric method
T6 sequence (P29474 whole entry): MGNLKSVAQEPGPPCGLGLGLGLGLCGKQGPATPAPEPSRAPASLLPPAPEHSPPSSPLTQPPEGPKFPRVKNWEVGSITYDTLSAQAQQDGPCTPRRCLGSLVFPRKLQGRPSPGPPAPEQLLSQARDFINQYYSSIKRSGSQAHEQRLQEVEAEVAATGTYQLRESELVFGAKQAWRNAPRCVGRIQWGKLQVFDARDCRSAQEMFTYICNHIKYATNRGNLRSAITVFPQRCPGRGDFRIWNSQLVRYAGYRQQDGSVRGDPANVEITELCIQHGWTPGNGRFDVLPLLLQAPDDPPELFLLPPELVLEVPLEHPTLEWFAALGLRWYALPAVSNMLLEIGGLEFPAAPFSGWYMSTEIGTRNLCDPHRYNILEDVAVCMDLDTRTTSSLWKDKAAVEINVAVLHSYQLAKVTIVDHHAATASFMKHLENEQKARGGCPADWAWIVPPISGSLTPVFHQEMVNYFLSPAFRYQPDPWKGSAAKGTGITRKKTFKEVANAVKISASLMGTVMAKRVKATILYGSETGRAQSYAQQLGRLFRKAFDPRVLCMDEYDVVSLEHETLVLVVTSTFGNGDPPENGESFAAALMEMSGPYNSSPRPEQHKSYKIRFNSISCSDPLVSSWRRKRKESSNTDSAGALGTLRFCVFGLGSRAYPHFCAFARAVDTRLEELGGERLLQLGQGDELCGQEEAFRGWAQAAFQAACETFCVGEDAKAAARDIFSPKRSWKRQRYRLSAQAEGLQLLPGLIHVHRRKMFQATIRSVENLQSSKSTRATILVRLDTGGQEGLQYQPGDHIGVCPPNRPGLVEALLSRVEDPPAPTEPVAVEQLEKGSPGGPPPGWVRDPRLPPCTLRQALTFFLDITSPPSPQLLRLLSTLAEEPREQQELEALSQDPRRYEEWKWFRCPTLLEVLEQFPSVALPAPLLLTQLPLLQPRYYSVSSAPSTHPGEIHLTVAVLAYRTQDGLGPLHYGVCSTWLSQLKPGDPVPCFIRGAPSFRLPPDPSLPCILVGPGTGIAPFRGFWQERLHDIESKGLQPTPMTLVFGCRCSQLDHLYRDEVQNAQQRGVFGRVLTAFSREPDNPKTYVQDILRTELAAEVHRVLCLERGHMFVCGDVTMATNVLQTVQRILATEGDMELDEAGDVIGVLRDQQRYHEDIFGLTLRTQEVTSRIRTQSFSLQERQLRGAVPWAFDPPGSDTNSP

Nitric oxide synthase, inducible, sequence (P35228 whole entry): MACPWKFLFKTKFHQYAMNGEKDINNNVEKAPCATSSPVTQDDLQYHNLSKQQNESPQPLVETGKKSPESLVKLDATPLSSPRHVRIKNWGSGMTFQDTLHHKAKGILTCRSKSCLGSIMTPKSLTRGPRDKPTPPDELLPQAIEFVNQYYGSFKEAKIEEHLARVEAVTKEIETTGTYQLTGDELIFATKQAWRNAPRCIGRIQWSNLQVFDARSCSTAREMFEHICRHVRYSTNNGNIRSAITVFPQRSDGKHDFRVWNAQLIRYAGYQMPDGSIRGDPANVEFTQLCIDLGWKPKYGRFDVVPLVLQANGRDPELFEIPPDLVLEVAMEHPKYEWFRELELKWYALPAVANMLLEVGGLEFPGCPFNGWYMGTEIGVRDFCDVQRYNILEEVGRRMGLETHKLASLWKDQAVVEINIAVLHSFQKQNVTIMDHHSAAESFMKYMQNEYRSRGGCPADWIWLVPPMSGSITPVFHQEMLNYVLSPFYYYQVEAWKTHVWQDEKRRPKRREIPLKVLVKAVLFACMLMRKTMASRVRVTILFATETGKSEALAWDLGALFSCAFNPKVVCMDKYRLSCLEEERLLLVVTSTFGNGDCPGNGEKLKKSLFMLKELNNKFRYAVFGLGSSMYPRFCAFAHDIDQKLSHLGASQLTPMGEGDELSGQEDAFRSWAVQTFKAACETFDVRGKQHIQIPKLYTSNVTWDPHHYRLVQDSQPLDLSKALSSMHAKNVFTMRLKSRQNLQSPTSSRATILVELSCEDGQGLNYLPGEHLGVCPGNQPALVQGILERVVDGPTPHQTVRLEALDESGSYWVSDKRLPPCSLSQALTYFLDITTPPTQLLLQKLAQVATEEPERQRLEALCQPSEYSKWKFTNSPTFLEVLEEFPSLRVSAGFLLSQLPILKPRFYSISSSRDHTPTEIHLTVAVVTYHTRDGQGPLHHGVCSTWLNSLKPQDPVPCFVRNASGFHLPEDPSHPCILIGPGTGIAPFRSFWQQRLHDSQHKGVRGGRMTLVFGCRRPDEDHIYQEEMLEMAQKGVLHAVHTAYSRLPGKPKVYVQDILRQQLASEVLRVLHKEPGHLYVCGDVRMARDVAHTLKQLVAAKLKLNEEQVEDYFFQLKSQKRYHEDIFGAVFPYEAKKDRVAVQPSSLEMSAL
Nitric oxide synthase 1, sequence (P29475 whole entry): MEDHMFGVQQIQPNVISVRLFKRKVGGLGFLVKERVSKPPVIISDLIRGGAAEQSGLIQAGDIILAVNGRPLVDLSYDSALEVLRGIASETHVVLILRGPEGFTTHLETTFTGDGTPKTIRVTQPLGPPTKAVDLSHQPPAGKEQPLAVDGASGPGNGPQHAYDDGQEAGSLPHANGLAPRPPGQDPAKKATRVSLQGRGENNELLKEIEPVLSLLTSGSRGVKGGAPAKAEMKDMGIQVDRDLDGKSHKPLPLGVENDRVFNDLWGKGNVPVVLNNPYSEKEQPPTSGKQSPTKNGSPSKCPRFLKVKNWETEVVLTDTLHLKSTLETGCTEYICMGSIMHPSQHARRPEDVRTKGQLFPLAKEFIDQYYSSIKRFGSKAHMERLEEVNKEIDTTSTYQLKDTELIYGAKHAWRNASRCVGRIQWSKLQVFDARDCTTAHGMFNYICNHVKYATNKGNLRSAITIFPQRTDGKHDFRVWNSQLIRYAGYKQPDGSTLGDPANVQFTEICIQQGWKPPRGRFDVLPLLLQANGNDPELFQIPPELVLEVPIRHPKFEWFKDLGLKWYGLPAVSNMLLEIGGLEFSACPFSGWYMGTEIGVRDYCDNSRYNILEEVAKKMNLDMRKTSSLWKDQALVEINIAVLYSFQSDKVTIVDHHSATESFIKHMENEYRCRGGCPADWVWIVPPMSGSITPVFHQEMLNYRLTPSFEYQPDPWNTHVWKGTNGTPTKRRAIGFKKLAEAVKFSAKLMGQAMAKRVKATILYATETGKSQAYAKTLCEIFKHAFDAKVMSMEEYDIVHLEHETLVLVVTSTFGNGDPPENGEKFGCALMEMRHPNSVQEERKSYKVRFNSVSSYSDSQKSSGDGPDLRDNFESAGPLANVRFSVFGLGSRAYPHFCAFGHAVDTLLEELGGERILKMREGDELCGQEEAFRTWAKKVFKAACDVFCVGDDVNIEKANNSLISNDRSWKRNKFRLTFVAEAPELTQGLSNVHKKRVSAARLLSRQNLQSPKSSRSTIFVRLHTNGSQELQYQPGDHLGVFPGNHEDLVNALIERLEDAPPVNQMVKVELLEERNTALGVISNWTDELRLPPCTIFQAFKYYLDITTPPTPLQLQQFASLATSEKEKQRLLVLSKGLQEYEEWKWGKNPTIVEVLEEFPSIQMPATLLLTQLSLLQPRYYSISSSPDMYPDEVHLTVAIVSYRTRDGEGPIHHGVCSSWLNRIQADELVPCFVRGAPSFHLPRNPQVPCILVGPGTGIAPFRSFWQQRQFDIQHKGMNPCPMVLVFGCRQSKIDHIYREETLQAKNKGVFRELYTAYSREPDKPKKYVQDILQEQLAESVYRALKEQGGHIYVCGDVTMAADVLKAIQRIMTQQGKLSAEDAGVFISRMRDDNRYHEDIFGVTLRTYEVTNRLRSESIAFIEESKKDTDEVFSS
Voltage-gated inwardly rectifying potassium channel KCNH2, sequence (Q12809 whole entry): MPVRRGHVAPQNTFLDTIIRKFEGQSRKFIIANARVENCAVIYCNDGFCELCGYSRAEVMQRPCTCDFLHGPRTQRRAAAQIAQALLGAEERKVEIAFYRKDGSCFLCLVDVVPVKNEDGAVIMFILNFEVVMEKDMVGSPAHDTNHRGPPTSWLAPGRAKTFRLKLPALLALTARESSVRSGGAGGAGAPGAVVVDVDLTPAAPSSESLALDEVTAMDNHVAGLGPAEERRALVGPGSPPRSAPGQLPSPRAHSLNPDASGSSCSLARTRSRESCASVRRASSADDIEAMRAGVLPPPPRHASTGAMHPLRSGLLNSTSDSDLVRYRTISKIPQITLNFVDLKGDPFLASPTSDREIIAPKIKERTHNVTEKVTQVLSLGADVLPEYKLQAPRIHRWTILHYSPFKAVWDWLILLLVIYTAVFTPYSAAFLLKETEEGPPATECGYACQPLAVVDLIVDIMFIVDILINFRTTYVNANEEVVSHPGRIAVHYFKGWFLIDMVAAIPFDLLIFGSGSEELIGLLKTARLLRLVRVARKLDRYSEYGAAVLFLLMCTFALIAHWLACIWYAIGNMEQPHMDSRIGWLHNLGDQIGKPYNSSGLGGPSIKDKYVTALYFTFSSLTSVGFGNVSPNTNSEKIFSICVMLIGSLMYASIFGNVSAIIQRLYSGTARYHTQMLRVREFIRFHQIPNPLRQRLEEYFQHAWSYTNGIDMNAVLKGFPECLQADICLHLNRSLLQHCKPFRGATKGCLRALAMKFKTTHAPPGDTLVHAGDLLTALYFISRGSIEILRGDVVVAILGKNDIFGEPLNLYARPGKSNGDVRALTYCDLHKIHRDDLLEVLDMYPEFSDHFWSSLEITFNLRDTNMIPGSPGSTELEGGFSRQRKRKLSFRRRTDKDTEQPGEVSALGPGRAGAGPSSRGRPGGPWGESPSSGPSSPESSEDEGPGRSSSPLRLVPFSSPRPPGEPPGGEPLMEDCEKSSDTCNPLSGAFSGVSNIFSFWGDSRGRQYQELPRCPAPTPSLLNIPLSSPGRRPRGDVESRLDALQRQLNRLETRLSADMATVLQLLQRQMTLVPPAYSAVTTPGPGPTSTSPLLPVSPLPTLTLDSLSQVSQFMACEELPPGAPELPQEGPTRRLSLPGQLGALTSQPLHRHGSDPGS
Cytochrome P450 2C9, sequence (P11712 whole entry): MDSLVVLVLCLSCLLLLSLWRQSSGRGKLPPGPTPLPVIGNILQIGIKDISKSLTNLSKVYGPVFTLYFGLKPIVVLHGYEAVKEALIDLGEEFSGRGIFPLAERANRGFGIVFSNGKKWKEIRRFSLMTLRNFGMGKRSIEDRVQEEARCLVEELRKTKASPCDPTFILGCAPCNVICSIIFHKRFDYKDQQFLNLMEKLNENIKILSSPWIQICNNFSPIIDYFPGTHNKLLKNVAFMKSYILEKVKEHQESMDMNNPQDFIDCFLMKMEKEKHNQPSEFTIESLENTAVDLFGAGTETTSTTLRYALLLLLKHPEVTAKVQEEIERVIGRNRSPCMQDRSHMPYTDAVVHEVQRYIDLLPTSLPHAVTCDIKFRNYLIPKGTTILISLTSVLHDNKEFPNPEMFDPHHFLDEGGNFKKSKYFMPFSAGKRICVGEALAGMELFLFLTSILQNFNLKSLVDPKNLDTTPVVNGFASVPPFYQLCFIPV
Cytochrome P450 2D6, sequence (P10635 whole entry): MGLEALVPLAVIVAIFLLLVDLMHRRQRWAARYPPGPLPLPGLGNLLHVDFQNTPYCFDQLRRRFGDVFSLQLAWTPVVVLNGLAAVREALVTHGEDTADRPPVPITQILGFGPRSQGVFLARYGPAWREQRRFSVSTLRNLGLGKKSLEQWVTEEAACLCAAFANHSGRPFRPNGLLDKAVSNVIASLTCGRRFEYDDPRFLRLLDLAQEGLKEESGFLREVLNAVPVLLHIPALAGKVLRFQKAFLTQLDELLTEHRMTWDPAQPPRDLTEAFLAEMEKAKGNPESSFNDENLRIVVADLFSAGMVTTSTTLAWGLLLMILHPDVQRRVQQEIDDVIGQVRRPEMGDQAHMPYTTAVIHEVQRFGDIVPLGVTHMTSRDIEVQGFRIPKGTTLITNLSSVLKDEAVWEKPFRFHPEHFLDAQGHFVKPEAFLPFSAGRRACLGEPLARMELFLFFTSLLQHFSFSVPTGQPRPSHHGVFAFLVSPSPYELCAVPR

`CNCCN1CCCc2cc(NC(=N)c3cccs3)ccc21` [listing 1 of 2 here] showed an IC50 [1] of 0.176 µM.
In the case of `CNCCN1CCCc2cc(NC(=N)c3cccs3)ccc21` [listing 2 of 2 here], the “inhibition (INH)” value [2] is reported as “Not Active”, the half-life [3] is reported as 8.1 h and the fraction unbound [4] is reported as 0.6. The Cmax [5] was 880 nM, the “inhibition (INH)” value [6] was “Not Active” and the EC50 [7] was over 40 µM. The Tmax [8] was 2 h, the Vd [9] was 83.9 L/kg and the “inhibition (INH)” value [10] was “Not Active”. The EC50 [11] was over 40 µM, the bioavailability [12] was 59.9% and the EC50 [13] was over 40 µM. The clearance [14] was 87.7 mL/min/kg, the “inhibition (INH)” value [15] was “Not Active” and the EC50 [16] was over 40 µM. The “inhibition (INH)” value [17] was “Not Active”, the EC50 [18] was over 40 µM and the AUC [19] was 1160 ng·h/mL.
Compound `CN(CCO)CCN1CCCc2cc(NC(=N)c3cccs3)ccc21` has an IC50 [1] of 0.133 µM and an IC50 [20] of over 100 µM.
In the case of `CNCCCN1CCCc2cc(NC(=N)c3cccs3)ccc21`, the IC50 [21] is reported as over 30 µM and the IC50 [20] is reported as over 100 µM.
For `N=C(Nc1ccc2c(c1)CCCN2CCCNCCO)c1cccs1`, the IC50 [21] was over 30 µM, the IC50 [1] was 0.169 µM and the IC50 [22] was 39.2 µM. It also gave an IC50 [20] of over 100 µM.
